Source: patent US9079821B2, “Quinone based nitric oxide donating compounds” (NICOX S.A., priority 2011, dated 2015)
One block for each compound: values may come before it.

Tests used:
[1] = Pharmacokinetic profile in rats (blood 15N-nitrite levels); type: in vivo, rat; settings: rat, in vivo, po, 30 mg/kg
Experimental: (§1) The absorption and in vivo NO-donating property of the compounds of the invention were assessed by the evaluation of blood ^15N-nitrite levels following oral administration.
Tested Compounds: • 5-(2,4,5-trimethyl-3,6-dioxocyclohexa-1,4-dienylpentyl nitrate-nitrogen-15 which corresponds to compound (1) containing nitrogen-15 (^15N-Compound (1)); • 5-(4,5-dimethoxy-2-methyl-3,6-dioxocyclohexa-1,4-dienyl)pentyl nitrate-nitrogen-15 which corresponds to compound (2) containing nitrogen-15 (^15N-Compound (2)); • 4-(2,4,5-trimethyl-3,6-dioxocyclohexa-1,4-dienyl)butyl nitrate-nitrogen-15 which corresponds to compound (3) containing nitrogen-15 (^15N-Compound (3)); • 4-(4,5-dimethoxy-2-methyl-3,6-dioxocyclohexa-1,4-dienyl)butyl nitrate-nitrogen-15 which corresponds to compound (4) containing nitrogen-15 (^15N-Compound (4)); • 10-(2,4,5-trimethyl-3,6-dioxocyclohexa-1,4-dienyl)decyl nitrate-nitrogen-15 which corresponds to compound (5) containing nitrogen-15 (^15N-Compound (5)); • 10-(4,5-dimethoxy-2-methyl-3,6-dioxocyclohexa-1,4-dienyl)decyl nitrate-nitrogen-15 which corresponds to compound (6) containing nitrogen-15 (^15N-Compound (6)); • 3-(3-(4,5-dimethoxy-2-methyl-3,6-dioxocyclohexa-1,4-dienyl)propoxy)propyl nitrate-nitrogen-15 which corresponds to compound (14) containing nitrogen-15 (^15N-Compound (14)); • 6-(2,4,5-trimethyl-3,6-dioxocyclohexa-1,4-dienyl)hexyl nitrate-nitrogen-15 which corresponds to compound (15) containing nitrogen-15 (^15N-Compound (15)); • 6-(4,5-dimethoxy-2-methyl-3,6-dioxocyclohexa-1,4-dienyl)hexyl nitrate-nitrogen-15 which corresponds to compound (16) containing nitrogen-15 (^15N-Compound (16)); • 11-(4,5-dimethoxy-2-methyl-3,6-dioxocyclohexa-1,4-dienyl)-undecane-1,2-diyl dinitrate-nitrogen-15 which corresponds to compound (17) containing nitrogen-15 (^15N-Compound (17)); • 8-(5-methoxy-2,4-dimethyl-3,6-dioxocyclohexa-1,4-dienyl)octyl nitrate-nitrogen—which corresponds to compound (19) containing nitrogen-15 (^15N-Compound (19)); • 2-(3-(4,5-dimethoxy-2-methyl-3,6-dioxocyclohexa-1,4-dienyl)propoxy)ethyl nitrate-nitrogen-15 which corresponds to compound (20) containing nitrogen-15 (^15N-Compound (20)); • 6-(3-methyl-1,4-dioxo-1,4-dihydronaphthalen-2-yl)hexyl nitrate-nitrogen-15 which corresponds to compound (23) containing nitrogen-15 (^15N-Compound (23)); • 3-(3-(3-methyl-1,4-dioxo-1,4-dihydronaphthalen-2-yl)propoxy)propyl nitrate-nitrogen-15 which corresponds to compound (25) containing nitrogen-15 (^15N-Compound (25)); • 6-(5-methoxy-2,4-dimethyl-3,6-dioxocyclohexa-1,4-dienyl)hexyl nitrate-nitrogen-15 which corresponds to compound (28) containing nitrogen-15 (^15N-Compound (28)); • 6-(4-methoxy-2,5-dimethyl-3,6-dioxocyclohexa-1,4-dienyl)hexyl nitrate-nitrogen-15 which corresponds to compound (29) containing nitrogen-15 (^15N-Compound (29)); • 8-(4-methoxy-2,5-dimethyl-3,6-dioxocyclohexa-1,4-dienyl)octyl nitrate-nitrogen-15 which corresponds to compound (32) containing nitrogen-15 (^15N-Compound (32)); • 8-(2,4,5-trimethyl-3,6-dioxocyclohexa-1,4-dienyl)octyl nitrate-nitrogen-15 which corresponds to compound (34) containing nitrogen-15 (^15N-Compound (34)); • 5-isorbide mononitrate containing nitrogen-15 (5-ISM^15N).
(§2) Cannulated SD rats were orally treated with ^15N-Compounds (6) at 30 mg/kg, 5-ISM^15N (30 mg/kg), or ^15N-Compounds (1)-(5), 14)-(17), (19), (20), (23), (25), (28), (29), (32), (34) at 30 mg/kg. At each time point (5, 10, 15, 30, 60, 180, 360 and 1440 min) blood was taken using heparin to avoid blood clotting. Blood samples were immediately protein crushed. Samples were analyzed by LC-MS/MS.
In Table 7 are reported ^15N-nitrite blood levels following oral administration of SD rats with 5-ISM^15N (30 mg/kg) or with ^15N-labeled corresponding compounds of the invention (30 mg/kg).

[2] = Pharmacokinetic profile in mice (blood 15N-nitrite levels); type: in vivo; settings: CD1 mice
Experimental: as §1
Tested Compounds: • 10-(4,5-dimethoxy-2-methyl-3,6-dioxocyclohexa-1,4-dienyl)decyl nitrate-nitrogen-15 which correspond to compound (6) containing nitrogen-15 (^15N-Compound (6)); • 5-isorbide mononitrate containing nitrogen-15 (5-ISM^15N)
Male CD1 mice (n=3/time point) were orally treated with ^15N-Compound (6) at 100 mg/kg or 5-ISM^15N (30 mg/kg). At each time point (5, 10, 15, 30, 60, 120, 240, 360, 480 and 1440 min) blood was taken by cardiac puncture using heparin to avoid blood clotting. Blood samples were immediately protein crushed. Samples were analyzed by LC-MS/MS. ^15N-nitrite levels following oral administration of Compound (6) (100 mg/kg) or 5-ISM^15N (30 mg/kg) in CD1 mice are reported in Table 6.

[3] = system: rat L-NAME-induced hypertension; test: Rat L-NAME-induced hypertension, systolic blood pressure after single oral dose; type: in vivo; settings: for Delta vs basal (mmHg): 5-ISMN 30 mg/kg oral, L-NAME 50 mg/kg i.p.
Experimental: To assess the in vivo NO-dependent activity, Compound (6) was evaluated for systolic blood pressure (SBP) reduction efficacy in a rat model of NO-deprivation induced by L-NAME and compared with 5-ISMN.
(§3) Fasted male SD rats (250-300 g, n=3-5 per group), obtained from Harlan Italy (Correzzana, Milan, Italy) were orally treated with tested compounds or vehicle (DMSO:Methocel 1% 2/98 v/v) in a total volume of 4 ml/kg by gavage. At each time point (1, 3, 6 and 24 h) animals were deeply anesthetized with Zoletil® 100 (3 mg/kg), given intramuscularly. Thereafter, a pressure catheter (Samba Sensors, Harvard Apparatus, UK) was introduced into the common carotid artery for central blood pressure measurement. Pressure transducer was connected to a personal computer, in order to allow real time monitor of the pressure tracing. After 10 minutes of basal recording, L-NAME (50 mg/kg) was administered intraperitoneally and the effect on SBP monitored. When the SBP stabilized (5 minutes without variations) the recording was stopped. To further confirm that functional activity was NO-dependent, at each time point blood ^15N-nitrite levels were measured following the procedure described in Example 12.

[4] = system: isolated aortas from rats; test: Ex vivo tolerance evaluation (vascular response of isolated aortas from treated rats); type: in vivo, rat; settings: for EC50: vascular response to 5-ISMN, 1 h after last administration
Experimental: (§4) Thoracic aortas from male New Zealand rabbits or male Sprague Dawley (SD) were used. The aortas were placed immediately in Krebs-HEPES buffer (pH 7.4; composition mM: NaCl 130.0, KCl 3.7, NaHCO3 14.9, KH2PO4 1.2, MgSO4.7H2O 1.2, Glucose 11.0, HEPES 10.0, CaCl2.2H2O 1.6). Connective tissue was removed and aortas were cut into ring segments (4-5 mm in length). Each ring was placed in a 5 mL tissue bath filled with Krebs-HEPES buffer (37° C.) aerated with 95% O2 and 5% CO2 and was attached to a force transducer (Grass FT03), connected to a BIOPAC MP150 System for measurement of the isometric tension. Preparations were allowed to equilibrate for 1 h at a resting tension of 2 g for rabbit aortas and 1 g for rat aortas with changes of the buffer every 15 min. Then the rings were stimulated by exposure to 90 mM KCl (3 times) with intervening washings.
(§5) Rat aorta. After equilibration, rat aortas were precontracted with KCl (90 mM) and, when the contraction was stable, a cumulative concentration-response curve to acetylcholine (ACh, 0.01-100 μM) was added. After washout, the rings were precontracted again with KCl (90 mM). When a steady-state level of contraction was obtained, a cumulative concentration-response curve to the tested compounds (0.01-100 μM) was obtained.
(§6) Data analysis. Results are given as mean±SEM. Vascular responses are expressed as percentage relaxation and plotted vs concentration. The sensitivity of isolated aorta to different vasodilators is expressed as the concentration that elicited 50% of the maximal responses (EC50). Responses are quantified in terms of EC50 and Emax (maximal vasodilating effect) values, obtained from the concentration-response curve by nonlinear curve fitting, using GraphPad software.
Tolerance to nitrate was further investigated assessing the vascular effects of Compound (6) following repeated treatment compared with 5-ISMN. The vascular response to the compound itself was assessed on isolated aortas from rats orally treated for 5 days with Compound (6) (100 mg/kg). The vascular response was performed as described in Example 6.
Vascular responses were performed 1 h (ISMN) or 3 h (Compound (6)) after the last administration, the concentrations of tested compound that elicited the 50% of the maximal responses (EC50) are shown in Table 4.

[5] = Blood 15N-nitrite levels in the rat L-NAME-induced hypertension study; type: in vivo; settings: 5-ISMN 30 mg/kg oral
Experimental: as §3, §2

[6] = system: rat L-NAME-induced hypertension; test: In vivo tolerance evaluation (L-NAME-induced hypertension after 5-day oral treatment); settings: for Delta vs basal (mmHg): peak effect 1 hour
Experimental: as §3
To investigate whether the compound (6) induced nitrate tolerance, as observed for most of the drugs belonging to the nitrate class, the L-NAME-induced hypertension rat model described in Example 7 was performed following a repeated oral treatment. Rats were orally treated for 5 days with vehicle, compound (6) (100 mg/kg) or 5-ISMN (30 mg/kg). […] The experiments were performed at the peak effect (1 hour for 5-ISMN and 3 hours for Compound (6)), results are reported in Table 3.

[7] = system: rat aorta, endothelial-dependent vasodilation (response to ACh); test: Endothelial dysfunction evaluation (vascular response to acetylcholine after treatment); type: in vivo; settings: for % relaxation (Emax): response to ACh
Experimental: as §4, §5, §6
Endothelial-dependent vasodilation (vascular response to acetylcholine, ACh) was assessed following 5-day treatment with Compound (6) (100 mg/kg) or 5-ISMN (30 mg/kg). A relaxant response to ACh indicated the presence of a functional endothelium. The vascular response was performed as described in Example 6.

15N-nitrite AUC0-24 [1]: 2469 µM·min | 15N-nitrite Tmax [1]: 180 min | 15N-nitrite AUC0-24 ([2]; oral 100 mg/kg): 1225 µM·min | 15N-nitrite Tmax ([2]; oral 100 mg/kg): 30 min
Structure (SMILES): COC1=C(OC)C(=O)C(CCCCCCCCCCO[15N+](=O)[O-])=C(C)C1=O [^15N-Compound (6), 10-(4,5-dimethoxy-2-methyl-3,6-dioxocyclohexa-1,4-dienyl)decyl nitrate-nitrogen-15]

Structure (SMILES): O=[N+]([O-])O[C@@H]1CO[C@H]2[C@@H]1OC[C@@H]2O [Compound 5-ISMN, isosorbide-5-mononitrate, reference compound]
Delta vs basal (mmHg) ([3]; 1 hour): 10.5 ± 6.1 mmHg | Delta vs basal (mmHg) ([3]; 3 hours): 6.5 ± 2.4 mmHg | Delta vs basal (mmHg) ([3]; 6 hours): 51.2 ± 5.7 mmHg | Delta vs basal (mmHg) ([3]; 24 hours): 83 ± 9 mmHg | time over which L-NAME induced hypertension was counteracted after treatment ([3]; 5-ISMN 30 mg/kg, single oral administration): ≤ 3 h | vascular response of aortas from treated animals vs control arteries, in words ([4]; 5-ISMN 30 mg/kg, repeated treatment): showed a reduced vascular response to 5-ISMN compared to control arteries | EC50 ([4]; acute, aortas of rats given 5-ISMN 30 mg/kg): 20 ± 0.6 µM | EC50 ([4]; repeated (5 days oral) 5-ISMN 30 mg/kg): 127 ± 48 µM | 15N-nitrite levels ([5]; 1 hour): 11.0 ± 0.5 µM | 15N-nitrite levels ([5]; 3 hours): 8.7 ± 0.7 µM | 15N-nitrite levels ([5]; 6 hours): 6.5 ± 0.5 µM | 15N-nitrite levels ([5]; 24 hours): 0.34 ± 0.06 µM | efficacy against L-NAME-induced hypertension after 5-day treatment (nitrate tolerance), in words ([6]; 5-ISMN 30 mg/kg oral, 5 days): did not maintain its efficacy in preventing L-NAME-induced hypertension | Delta vs basal (mmHg) ([6]; acute treatment, 5-ISMN 30 mg/kg oral): 10.5 ± 6.1 mmHg | Delta vs basal (mmHg) ([6]; repeated (5 days) oral treatment, 5-ISMN 30 mg/kg): 88 ± 11.5 mmHg | effect on endothelial-dependent vasorelaxation, in words ([7]; 5-ISMN 30 mg/kg, 5-day treatment): caused a reduced response to Ach | % relaxation (Emax) ([7]; acute, 5-ISMN 30 mg/kg): 92.7 ± 4.3% | % relaxation (Emax) ([7]; repeated (5-day) 5-ISMN 30 mg/kg): 78.2 ± 9.2%

Structure (SMILES): O=[N+]([O-])O[C@@H]1CO[C@H]2[C@@H]1OC[C@@H]2O [5-ISM^15N, 5-isorbide mononitrate containing nitrogen-15, reference compound]
15N-nitrite AUC0-24 [1]: 7399 µM·min | 15N-nitrite Tmax [1]: 60 min | Cmax [1]: 20.6 ± 4.2 µM | 15N-nitrite AUC0-24 ([2]; oral 30 mg/kg): 2758 µM·min | 15N-nitrite Tmax ([2]; oral 30 mg/kg): 30 min | Cmax ([2]; oral 30 mg/kg): 27.5 ± 3 µM

Structure (SMILES): COC1=C(OC)C(=O)C(CCCCCCCCCCO[N+](=O)[O-])=C(C)C1=O [^15N-Compound (6), 10-(4,5-dimethoxy-2-methyl-3,6-dioxocyclohexa-1,4-dienyl)decyl nitrate-nitrogen-15]
Cmax [1]: 2.6 ± 0.2 µM | Cmax ([2]; oral 100 mg/kg): 3.1 ± 0.3 µM
